Measured values reported in article PMC6272861, “In Vitro Inhibition of Human UDP-Glucuronosyl-Transferase (UGT) Isoforms by Astaxanthin, β-Cryptoxanthin, Canthaxanthin, Lutein, and Zeaxanthin: Prediction of in Vivo Dietary Supplement-Drug Interactions” (Molecules, 2016).
Values belong to the compound of their own block, whether it stands above or below them.

Columns and labels:
UGT2B15 = molecular target: T1, UGT2B15 (Homo sapiens, UniProt P54855); assay: Inhibition of UGT2B15 (4-methylumbelliferyl glucuronidation) in recombinant human UGT2B15 supersomes; type: in vitro ADME; conditions: recombinant UGT2B15 supersomes, 250 μM 4-methylumbelliferone, mean ± SD of triplicate; read-out: IC50 towards UGT2B15
T1 construct: purchased Corning Life Sciences
T1 sequence (P54855 24-530): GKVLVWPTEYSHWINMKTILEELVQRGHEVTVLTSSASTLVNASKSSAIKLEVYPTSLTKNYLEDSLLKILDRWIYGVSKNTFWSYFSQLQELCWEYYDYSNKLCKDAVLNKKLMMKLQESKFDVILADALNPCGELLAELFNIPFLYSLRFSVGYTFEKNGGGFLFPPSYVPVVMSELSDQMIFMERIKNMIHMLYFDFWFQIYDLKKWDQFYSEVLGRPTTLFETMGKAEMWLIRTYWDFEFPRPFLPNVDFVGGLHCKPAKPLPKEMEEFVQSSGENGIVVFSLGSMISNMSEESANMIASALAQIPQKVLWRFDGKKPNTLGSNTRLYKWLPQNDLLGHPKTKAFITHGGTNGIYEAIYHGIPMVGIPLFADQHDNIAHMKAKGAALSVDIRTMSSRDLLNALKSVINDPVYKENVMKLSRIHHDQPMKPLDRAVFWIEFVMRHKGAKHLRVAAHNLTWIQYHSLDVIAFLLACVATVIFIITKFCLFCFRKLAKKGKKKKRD
Procedure: Although S-oxazepam is a typical substrate of UGT2B15 of human liver microsomes, authentic S-oxazepam and the corresponding glucuronide are not commercially […]. Thus, the inhibition of AS, βC, CA, LU, and ZE on the UGT2B15 activity was assessed using 4-methylumbelliferone as the nonspecific probe substrate for all UGTs except UGT1A4 [34] in recombinant human UGT2B15 supersomes.
The reaction was initiated by addition of 10 µL 5 mM UDPGA (to 100 µL total volume) followed by incubation for 120 min at 37 °C in a shaking water bath. Reactions were stopped by addition of 50 µL of ice-cold acetonitrile containing chlorpropamide (300 ng/mL) as an internal standard, and they were chilled and centrifuged (13,000 g, 15 min, 4 °C). An aliquot of 5 μL of supernatant was injected into an LC-MS/MS system. Additionally, identical parallel incubation samples containing a known UGT2B15 inhibitor amitriptyine (0–200 μM) was included as a positive control for UGT2B15.
(§1) For visual inspection, data were presented as Dixon plots.

UGT1A1 = molecular target: T2, UGT1A1 (Homo sapiens, UniProt P22309); assay: Ki determination on UGT1A1 activity (β-estradiol-3-glucuronidation) in human liver microsomes; conditions: Dixon plots / nonlinear regression
T2 sequence (P22309 26-533): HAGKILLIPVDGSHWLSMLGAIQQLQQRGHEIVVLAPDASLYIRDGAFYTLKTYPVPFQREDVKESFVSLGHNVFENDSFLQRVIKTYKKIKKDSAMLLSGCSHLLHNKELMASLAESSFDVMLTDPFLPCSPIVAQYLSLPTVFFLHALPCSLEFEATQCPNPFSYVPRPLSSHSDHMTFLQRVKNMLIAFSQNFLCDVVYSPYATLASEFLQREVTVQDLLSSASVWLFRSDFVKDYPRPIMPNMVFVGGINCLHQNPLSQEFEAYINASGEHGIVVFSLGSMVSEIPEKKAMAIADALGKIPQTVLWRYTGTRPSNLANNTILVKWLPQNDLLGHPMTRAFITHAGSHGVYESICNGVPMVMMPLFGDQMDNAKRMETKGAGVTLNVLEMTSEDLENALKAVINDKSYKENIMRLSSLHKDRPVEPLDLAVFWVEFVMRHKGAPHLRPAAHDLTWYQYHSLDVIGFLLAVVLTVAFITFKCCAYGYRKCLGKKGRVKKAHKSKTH
Procedure: Based on the lowest IC50 value, the inhibitor constant (Ki) values of the βC for UGT1A1 were determined. […] All incubations were performed in triplicate, and the mean values were used for the analysis. Other procedures were similar to those of the reversible inhibition studies.
as §1

UGT1A9 = molecular target: T3, UGT1A9 (Homo sapiens, UniProt O60656); assay: Inhibition of UGT1A9 (propofol-O-glucuronidation) in human liver microsomes
T3 sequence (O60656 26-530): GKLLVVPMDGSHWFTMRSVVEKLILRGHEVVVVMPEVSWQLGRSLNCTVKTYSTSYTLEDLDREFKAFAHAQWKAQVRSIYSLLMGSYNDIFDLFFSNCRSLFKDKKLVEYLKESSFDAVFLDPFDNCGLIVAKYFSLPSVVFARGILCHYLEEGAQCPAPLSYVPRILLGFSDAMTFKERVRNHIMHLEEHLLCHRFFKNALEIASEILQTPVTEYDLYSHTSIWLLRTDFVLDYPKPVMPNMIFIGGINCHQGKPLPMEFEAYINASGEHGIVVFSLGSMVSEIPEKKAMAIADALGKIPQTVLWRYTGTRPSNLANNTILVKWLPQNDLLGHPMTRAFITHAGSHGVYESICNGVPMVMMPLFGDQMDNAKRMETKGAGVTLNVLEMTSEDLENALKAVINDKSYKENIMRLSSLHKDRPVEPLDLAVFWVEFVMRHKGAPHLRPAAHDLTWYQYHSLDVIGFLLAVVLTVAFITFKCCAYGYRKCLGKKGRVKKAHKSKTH
Procedure: (§2) The formation activities of β-estradiol-3-glucuronide, chenodeoxycholic acid 24-acyl-β-D-glucuronide, trifluoperazine-N-glucuronide, imipramine-N-β-D-glucuronide, serotonin-O-glucuronide, propofol-O-glucuronide, and zidovudine-5′-glucuronide were determined to probe the activities of UGT1A1, UGT1A3, UGT1A4, UGT1A6, UGT1A9 and UGT2B7, respectively, in human liver microsomes.
(§3) In brief, the 90-µL incubation mixture, including pooled human liver microsomes (final concentration 0.25 mg/mL), 100 mM Tris buffer, 25 µg/mL alamethicin, 5 mM MgCl2, the UGT-selective substrates, and five xanthophylls (0–50 μM), were pre-incubated for 30 min on ice to allow formation of alamethicin pores. Reac2345tions were initiated by the addition of 10 μL of UDPGA (5 mM) to a final reaction volume of 0.1 mL and incubated at 37 °C for 60 min (except 30 min for UGT1A9) in a shaking water bath. After incubation, each reaction was stopped by adding 50 μL of ice-cold acetonitrile containing chlorpropamide (300 ng/mL) or theophylline (30 μg/mL or 300 μg/mL) as an internal standard. The mixtures were then centrifuged (13,000 g for 15 min at 4 °C) and 5-µL aliquots of the supernatants were injected into an LC-MS/MS system. […] All incubations were performed in triplicate, and mean values were used for analysis.
(§4) Chromatographic separations were performed on an Agilent Poroshell 120 EC-C18 column (50 mm × 4.6-mm i.d.; 2.7-μm particle size; Agilent Technologies) to quantify β-estradiol-3-glucuronide (UGT1A1), chenodeoxycholic acid 24-acyl-β-D-glucuronide (UGT1A3), trifluoperazine-N-glucuronide (UGT1A4), propofol-O-glucuronide (UGT1A9), zidovudine-5′-glucuronide (UGT2B7), and 4-methylumbelliferyl glucuronide (UGT2B15); an Agilent Poroshell 120 EC-C18 column (100 × 4.6-mm i.d.; 2.7-mm particle size) was used for quantification of serotonin-O-glucuronide (UGT1A6). The isocratic mobile phase consisted of distilled water (A) and acetonitrile containing 0.1% formic acid (B) at a ratio (v/v) of 10:90 for chenodeoxycholic acid 24-acyl-β-D-glucuronide, 30:70 for trifluoperazine-N-glucuronide and zidovudine-5′-glucuronide, 50:50 for propofol-O-glucuronide and 4-methylumbelliferyl glucuronide, 65:35 for β-estradiol-3-glucuronide, and 90:10 for serotonin-O-glucuronide, at a flow rate of 0.5 mL/min. The total run time was 4.0 min per sample for each metabolite, with the exception of serotonin-O-glucuronide (6.0 min). Peak areas for all of the analytes were automatically integrated using Analyst software (version 1.5.2, Applied Biosystems, Foster City, CA, USA).
(§5) The IC50 values were calculated via nonlinear least-squares regression analysis from plots of the logarithms of inhibitor concentration vs. the residual percentages of activities after inhibition, using WinNonlin (ver. 4.0; Pharsight, Mountain View, CA, USA).

UGT2B7 = molecular target: T4, UGT2B7 (Homo sapiens, UniProt P16662); assay: Inhibition of UGT2B7 (zidovudine-5′-glucuronidation) in human liver microsomes
T4 sequence (P16662 24-529): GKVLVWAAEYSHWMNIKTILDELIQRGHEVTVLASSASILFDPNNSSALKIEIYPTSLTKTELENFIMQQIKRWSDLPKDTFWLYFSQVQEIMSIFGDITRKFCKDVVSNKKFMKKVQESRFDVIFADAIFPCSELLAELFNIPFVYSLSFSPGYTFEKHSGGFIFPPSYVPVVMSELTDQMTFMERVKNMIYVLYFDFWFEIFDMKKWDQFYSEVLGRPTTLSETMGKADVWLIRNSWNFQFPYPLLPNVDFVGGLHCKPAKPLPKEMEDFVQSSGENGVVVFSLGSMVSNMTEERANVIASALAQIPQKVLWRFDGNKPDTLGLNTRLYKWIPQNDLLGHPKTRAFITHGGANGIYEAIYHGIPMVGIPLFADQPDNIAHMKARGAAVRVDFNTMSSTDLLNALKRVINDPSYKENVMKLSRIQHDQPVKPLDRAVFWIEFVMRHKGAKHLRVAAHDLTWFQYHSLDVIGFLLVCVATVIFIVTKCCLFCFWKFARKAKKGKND
Procedure: as §2, §3, §4, §5

UGT1A4 = molecular target: T5, UGT1A4 (Homo sapiens, UniProt P22310); assay: Inhibition of UGT1A4 (trifluoperazine-N-glucuronidation) in human liver microsomes; type: in vitro ADME; conditions: 4 μM trifluoperazine, mean ± SD of triplicate, read-out: IC50 towards UGT1A4
T5 construct: pooled human liver microsomes (final concentration 0.25 mg/mL); tissue Corning Life Sciences; host or cells: pooled human liver microsomes, 150 donors
T5 sequence (P22310 29-534): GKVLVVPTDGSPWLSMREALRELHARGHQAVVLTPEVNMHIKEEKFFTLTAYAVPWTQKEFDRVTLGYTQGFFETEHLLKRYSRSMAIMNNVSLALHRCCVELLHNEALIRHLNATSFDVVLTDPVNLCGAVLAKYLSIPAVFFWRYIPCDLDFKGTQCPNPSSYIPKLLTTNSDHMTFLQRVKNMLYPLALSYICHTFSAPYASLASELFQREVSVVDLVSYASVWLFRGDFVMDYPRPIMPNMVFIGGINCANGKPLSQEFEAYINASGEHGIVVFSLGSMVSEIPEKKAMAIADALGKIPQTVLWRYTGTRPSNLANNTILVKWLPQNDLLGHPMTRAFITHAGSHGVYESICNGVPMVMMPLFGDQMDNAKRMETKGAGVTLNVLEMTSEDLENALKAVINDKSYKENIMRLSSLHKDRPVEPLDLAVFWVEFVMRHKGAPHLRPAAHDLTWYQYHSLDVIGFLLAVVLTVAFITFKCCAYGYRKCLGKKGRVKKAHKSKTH
Procedure: as §2, §3, §4, §5

UGT1A3 = molecular target: T6, UGT1A3 (Homo sapiens, UniProt P35503)
T6 sequence (P35503 29-534): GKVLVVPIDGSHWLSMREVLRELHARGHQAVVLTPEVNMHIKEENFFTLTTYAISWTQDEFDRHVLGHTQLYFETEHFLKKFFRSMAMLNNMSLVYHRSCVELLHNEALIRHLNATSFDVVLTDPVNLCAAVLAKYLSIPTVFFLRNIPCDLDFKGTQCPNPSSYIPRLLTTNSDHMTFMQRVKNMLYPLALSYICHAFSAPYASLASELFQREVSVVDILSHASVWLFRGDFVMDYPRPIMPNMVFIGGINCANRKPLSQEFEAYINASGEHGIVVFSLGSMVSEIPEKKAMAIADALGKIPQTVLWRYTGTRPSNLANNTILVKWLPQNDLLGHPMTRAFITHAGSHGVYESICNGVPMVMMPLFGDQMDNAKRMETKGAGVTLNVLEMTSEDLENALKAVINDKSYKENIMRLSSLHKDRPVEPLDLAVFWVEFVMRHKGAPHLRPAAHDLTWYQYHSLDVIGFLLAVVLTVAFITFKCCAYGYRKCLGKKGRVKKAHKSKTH
Procedure: as §2, §3, §4, §5

SMILES: CN(C)CCC=C1c2ccccc2CCc2ccccc21 [Amitriptyline, amitriptyline, reference compound]
IC50 (UGT2B15): 69.4 ± 10.6 µM

SMILES: O=C1Nc2ccc(Cl)cc2[C@@](C#CC2CC2)(C(F)(F)F)O1 [Efavirenz, efavirenz, reference compound]
IC50 (UGT2B7): 37.8 ± 2.37 µM

SMILES: C[C@@H]1CC[C@@]2(OC1)O[C@H]1C[C@H]3[C@@H]4CC[C@H]5C[C@@H](O)CC[C@]5(C)[C@H]4CC(=O)[C@]3(C)[C@H]1[C@@H]2C [Hecogenin, hecogenin, reference compound]
IC50 (UGT1A4): 8.07 ± 2.6 µM

SMILES: COc1cc2c(c(OC)c1OC)-c1c(cc(OC)c(OC)c1OC)C[C@H](C)[C@H](C)C2 [Deoxyschizandrin, deoxyschizandrin]
IC50 (UGT1A3): 5.17 ± 0.7 µM

More lines, now with the values ahead:

Mode of inhibition of UGT1A1 (UGT1A1): competitive inhibition
SMILES: Cc1cn(-c2cc(NC(=O)c3ccc(C)c(Nc4nccc(-c5cccnc5)n4)c3)cc(C(F)(F)F)c2)cn1 [Nilotinib, nilotinib, reference compound]

IC50 (UGT1A9): 0.39 ± 0.0256 µM
SMILES: O=C(O)c1cccnc1Nc1cccc(C(F)(F)F)c1 [Niflumic acid, niflumic acid, reference compound]
